Laboratory results reported in EP2093288A1, “NOVEL DIPEPTIDE-DIGESTING ENZYME, METHOD OF PRODUCING THE SAME, METHOD OF ASSAYING GLYCATED PROTEIN BY USING THE DIPEPTIDE-DIGESTING ENZYME AND REAGENT COMPOSITION TO BE USED THEREIN” (Amano Enzyme Inc., priority 2006, dated 2008).
Where two headings read alike, the source gives them in different places. Non-standard residues stand in square brackets, D forms with d. Residues, ends and D or L forms follow the SMILES beside them. *: point of attachment. Sta = CC(C)C[C@H](N)[C@@H](O)CC(=O)O; Isovaleryl = CC(C)CC(=O)*

Assays:
Type in all cases: biochemical, Sphingopyxis chilensis No. 0522
[1] = tested on: dipeptide-degrading enzyme; assay: Influence of metal ions and the like on enzymatic activity (dipeptide-degrading activity, Example 3 method)
Protocol: (§1) The dipeptide-degrading activity may be measured by quantifying Fru-Val or histidine formed upon the degradation of Fru-Val-His. The method for quantifying histidine is described below. The amount of enzyme degrading 1 µmol of Fru-Val-His in 1 minute is defined as 1 unit of enzymatic activity (U). The reagents (1), (2), and (3), and a substrate solution used for measuring the activity were prepared as described below.
(§2) Substrate solution: Fru-Val-His (Peptide Institute Inc.) was dissolved in 100 mM of a MOPS buffer (pH 7.0), thus obtaining 40 mM of substrate solution.
0.02 mL of 1.40 mM substrate solution and 0.16 mL of the reagent (1) were accurately dispensed and mixed, and preincubated at 37°C for 5 minutes. Thereafter, 0.02 mL of enzyme solution was accurately added to and mixed with the mixture, and allowed to react at 37°C. As a blank test, 0.02 mL of the reagent (1) was added in place of the enzyme solution. After a lapse of 10 minutes, 0.8 mL of the reagent (3) was accurately added to and mixed with the mixture, and allowed to react at 37°C. After a lapse of 15 minutes, the absorbance at 505 nm was measured, and the dipeptide-degrading activity was calculated according to the calculation formula described below. The enzyme solution was appropriately diluted with the reagent (1) such that ΔABS = (As-Ab) ≤ 0.50 Abs, and used as the sample. The symbols and numerical values in the calculation formula represents the followings. • As: absorbance of enzyme solution • Ab: absorbance of blank solution • ΔABS: As - Ab • 12.88: millimole absorptivity (mmol/L/cm) of quinone pigment at 505 nm • 10: reaction time (min) • 2: coefficient representing that one molecule of quinone pigment is formed from two molecules of H2O2 • 1: light path length (cm) • 1.0: total amount of reaction solution (mL) • 0.02: Amount of enzyme solution used for reaction (mL) • n: enzyme solution dilution ratio
Calculation formula Activity(U/mL) = ΔABS/10/12.88 × 2 × 1 × 1.0/0.02 × n [formula]
The enzymatic activity was measured in the same manner as Example 3, except that the reagent (1) was replaced with various metals and the like at specified concentrations (Table 2) and a 100 mM PIPES buffer (pH 6.2) containing 0.1% Triton X-100.

[2] = tested on: dipeptide-degrading enzyme; assay: Substrate specificity: dipeptide-degrading activity measurement of Example 3 with changed substrate; conditions: substrate changed from Fru-Val-His; 37°C, pH 6.2
Protocol: as §1, §2
0.02 mL of 1.40 mM substrate solution and 0.16 mL of the reagent (1) were accurately dispensed and mixed, and preincubated at 37°C for 5 minutes. Thereafter, 0.02 mL of enzyme solution was accurately added to and mixed with the mixture, and allowed to react at 37°C. As a blank test, 0.02 mL of the reagent (1) was added in place of the enzyme solution. After a lapse of 10 minutes, 0.8 mL of the reagent (3) was accurately added to and mixed with the mixture, and allowed to react at 37°C. After a lapse of 15 minutes, the absorbance at 505 nm was measured, and the dipeptide-degrading activity was calculated according to the calculation formula described below. The enzyme solution was appropriately diluted with the reagent (1) such that ΔABS = (As-Ab) ≤ 0.50 Abs, and used as the sample. […]

[3] = tested on: dipeptide-degrading enzyme; assay: Reactivity in actual measurement system for glycosylated dipeptide (Example 15 method, reagents E, B, C, absorbance at 555 nm)
Protocol: A glycosylated dipeptide was measured using a glycosylated hemoglobin β chain dipeptide Fru-Val-His (Peptide Institute Inc.). The reagents B and C were prepared according to the following recipes, and used for the study. Since the specimen was a glycosylated dipeptide, no protease was necessary. Therefore, the reagent E used herein had the same composition with the reagent A except that no protease was used. However, the glycosylated dipeptide may be quantified only with the reagents B and C without using the reagent E. The dipeptide-degrading enzyme used herein is the purified enzyme obtained in Example 6.
40 mM Fru-Val-His was prepared, and diluted with a 100 mM MOPS buffer (pH 7.0), thus making 0.1, 0.2, 0.4, 0.6, and 0.8 mM Fru-Val-His solutions. To 0.01 mL each of the diluting solutions, 0.04 mL of the reagent E was added, and allowed to react at 37°C for 5 minutes. 0.1 mL of the reagent B was added to each of the reaction liquids, and allowed to react at 37°C for 10 minutes. Thereafter, 0.9 mL of the reagent C was added to each of the reaction liquids, and allowed to react at 37°C. The absorbance at 555 nm was measured, and the increase (ΔOD) of the absorbance 5 minutes after initiation of the reaction was determined. […]

[4] = Conc. 2mM, 100 mM PIPES buffer (pH 6.2), 0.1% Triton X-100, None = 100
[5] = Conc. 1mM, 100 mM PIPES buffer (pH 6.2), 0.1% Triton X-100, None = 100
[6] = Conc. 50mM, 100 mM PIPES buffer (pH 6.2), 0.1% Triton X-100, None = 100

Compound | Relative activity (%) [1, 4] [%] | Relative activity (%) [1, 5] [%] | also measured
OCCS [2-Mercaptoethanol] | 11 | – | –
[Ba+2].[Cl-].[Cl-] [BaCl2] | – | 105 | –
[Ca+2].[Cl-].[Cl-] [CaCl2] | – | 162 | –
[Cl-].[Cl-].[Co+2] [CoCl2] | – | 676 | influences of the metal ions and the like on the enzymatic activity ([1]; summary in words of Table 2): activated
[Cl][Cu][Cl] [CuCl2] | – | 75 | –
O=C(O)CN(CCN(CC(=O)O)CC(=O)O)CC(=O)O [EDTA] | – | – | influences of the metal ions and the like on the enzymatic activity [1]: deactivated; Relative activity (%) ([1]; pH 6.2, 5000 µM): 1%
CC(C)C[C@H](NC(=O)[C@@H](NCC(=O)[C@@H](O)[C@H](O)[C@H](O)CO)C(C)C)C(=O)O [Fru-Val-Leu, fructosyl valyl leucine] | – | – | activity value of the dipeptide-degrading enzyme for the substrate, relative to that for Fru-Val-His [2]: 4.9%; absorbance change converted into the Fru-Val-His concentration ([3]; 0.8 mM substrate, converted using Fig. 7): 0.14 mM; reactivity ([3]; for the 0.8 mM substrate, relative to Fru-Val-His): 18%
[Cl-].[Cl-].[Mg+2] [MgCl2] | – | 261 | influences of the metal ions and the like on the enzymatic activity ([1]; summary in words of Table 2): activated
[Cl][Mn][Cl] [MnCl2] | – | 137 | –
O=C(O)CI [Monoiode acetate] | – | – | Relative activity (%) ([1]; pH 6.2, 2000 µM): 111%
[Cl][Ni][Cl] [NiCl2] | – | 156 | –
O=S(=O)(F)Cc1ccccc1 [PMSF] | 97 | – | –
CC(C)CC(=O)N[C@H](C(=O)N[C@H](C(=O)N[C@@H](CC(C)C)[C@@H](O)CC(=O)N[C@@H](C)C(=O)N[C@@H](CC(C)C)[C@@H](O)CC(=O)O)C(C)C)C(C)C [Pepstatin A] (Isovaleryl-VV[Sta]A[Sta]-OH) | – | – | Relative activity (%) ([1]; Conc. 10 µg/ml, 100 mM PIPES buffer (pH 6.2), 0.1% Triton X-100, None = 100): 100%
CCCCCCCCCCCCOS(=O)(=O)O [SDS] | 9 | – | –
O=P1([O-])OP(=O)([O-])OP(=O)([O-])OP(=O)([O-])OP(=O)([O-])OP(=O)([O-])O1.[Na+].[Na+].[Na+].[Na+].[Na+].[Na+] [Sodium Hexametaphosphate] | 4 | – | –
O=C(O)CS [Thioglycolic acid] | 3 | – | –
[Cl-].[Cl-].[Zn+2] [ZnCl2] | – | 257 | influences of the metal ions and the like on the enzymatic activity ([1]; summary in words of Table 2): activated
c1cnc2c(c1)ccc1cccnc12 [o-Phenanthroline] | 0 | – | –
c1ccc(-c2ccccn2)nc1 [α, α'-Dipyridyl] | 1 | – | influences of the metal ions and the like on the enzymatic activity ([1]; summary in words of Table 2): deactivated
KCl | – | – | Relative activity (%) [1, 6]: 97%
NH4Cl | – | – | Relative activity (%) [1, 6]: 85%
NaCl | – | – | Relative activity (%) ([1]; pH 6.2, 50000 µM): 98%
